The values below come from patent publication US20110044938A1 (NYCOMED GMBH, priority 2006, published 2011).

SMILES strings stand for the structures.

Assay [1] has as its system subclones of RKO colon adenocarcinoma cells (RKOp27 or RKOp21) arrested by Ponasterone A. Put plainly: Alamar Blue cell viability assay, cell cycle specific mode of action: cells arrested by ectopic p27Kip1 induced by Ponasterone A versus proliferating cells. In kind it is cell-based. The note with it: Homo sapiens, RKO p27 induced (arrested) cells, 10 μM Ponasterone A, 72 hours, value = class bound given in Table A, read-out: −logIC50 RKO p27 induced (arrested) (converted). Here is the method: To determine the cell cycle specific mode of action, subclones of RKO colon adenocarcinoma cells (RKOp27 or RKOp21 as described by Schmidt et al. in Oncogene 19, 2423-2429; 2000) are seeded into 96 well flat bottom plates at a density of 15000 cells per well in a volume of 50 μl per well in DMEM growth medium with 10% FCS containing 10 μM Ponasterone A. 24 hours after seeding the 50 μl each of the compound dilutions in DMEM medium are added into each well of the 96 Well plate. Each compound dilution is tested as quadruplicates. Wells containing untreated control cells are filled with 50 μl DMEM medium containing 1% DMSO. The cells are then incubated with the substances for 72 hours at 37° C. in a humidified athmosphere containing 5% carbon dioxide. To determine the viability of the cells, 10 μl of an Alamar Blue solution (Biosource) are added and the fluorescence was measured at an extinction of 544 nm and an emission of 590 nm. For the calculation of the cell viability the emission value from untreated cells is set as 100% viability and the emission rates of treated cells are set in relation to the values of untreated cells. Viabilities are expressed as % values. Viability is compared of proliferating cells grown in the absence of the inducer Ponasterone A, versus viability of cells arrested by the expression of ectopic p27Kip1 induced by Ponasterone A.
(§1) Representative −log IC50 [mol/l] values for anti-proliferation/cytotoxicity determined in the mentioned assays follow from the following table A, in which the numbers of the compound correspond to the numbers of the examples.
(The colour change of resazurin is a common sign of viable cells or microbes.)

Assay [2] concerns RKO (RKOp27) human colon adenocarcinoma cells. In words: Alamar Blue cell viability assay, anti-proliferative/cytotoxic activity on proliferating RKO subclones. In kind it is cell-based. The note with it: RKOp27, 72 h, RKO p27 uninduced (proliferating) cells, value = class bound given in Table A, read-out: −logIC50 RKO p27 uninduced (proliferating) (converted). On the procedure: The anti-proliferative/cytotoxic activity of the compounds described herein, can be tested on subclones of RKO (RKOp27) human colon adenocarcinoma cells (Schmidt et al., Oncogene 19, 2423-2429; 2000) using the Alamar Blue cell viability assay (described in O'Brien et al. Eur J Biochem 267, 5421-5426, 2000). The compounds are dissolved as 20 mM solutions in dimethylsulfoxide (DMSO) and subsequently diluted in semi-logarithmic steps. DMSO dilutions are further diluted 1:100 into Dulbecco's modified Eagle's medium (DMEM) containing 10% fetal calf serum to a final concentration twice as much as the final concentration in the test. RKO subclones are seeded into 96 well flat bottom plates at a density of 5000 cells per well in a volume of 50 μl per well. 24 hours after seeding the 50 μl each of the compound dilutions in DMEM medium are added into each well of the 96 Well plate. Each compound dilution is tested as quadruplicates. Wells containing untreated control cells are filled with 50 μl DMEM medium containing 1% DMSO. The cells are then incubated with the substances for 72 hours at 37° C. in a hunified atmosphere containing 5% carbon dioxide. To determine the viability of the cells, 10 μl of an Alamar Blue solution (Biosource) are added and the fluorescence is measured at an extinction of 544 nm and an emission of 590 nm. For the calculation of the cell viability the emission value from untreated cells is set as 100% viability and the emission rates of treated cells are set in relation to the values of untreated cells. Viabilities are expressed as % values.
The corresponding IC50 values of the compounds for anti-proliferative/cytotoxic activity are determined from the concentration-effect curves.
as §1

On to `Cn1cnc(CNC(=O)OCC2CCc3c(sc(NC(=O)/C=C/c4cccnc4)c3C#N)C2)c1` (stereo not shown) [Example 44, (1-Methyl-1H-imidazol-4-ylmethyl)-carbamic acid 3-cyano-2-((E)-3-pyridin-3-yl-allanoylamino)-4,5,6,7-tetrahydro-benzo[b]thiophen-6-ylmethyl ester], for which the results for the IC50 in assay [1] and in assay [2] were at least 100 µM and at most 0.501 µM, respectively.
As to `Cn1ccnc1CNC(=O)OCC1CCc2c(sc(NC(=O)/C=C/c3cccnc3)c2C#N)C1` (stereo not shown) [Example 45, (1-Methyl-1H-imidazol-2-ylmethyl)-carbamic acid 3-cyano-2-((E)-3-pyridin-3-yl-allanoylamino)-4,5,6,7-tetrahydro-benzo[b]thiophen-6-ylmethyl ester], the figures for the IC50 in assay [1] and in assay [2] were at least 100 µM and 0.501 to 2 µM, respectively.
Turning to `Cn1nccc1CNC(=O)OCC1CCc2c(sc(NC(=O)/C=C/c3cccnc3)c2C#N)C1` (stereo not shown) [Example 46, (2-Methyl-2H-pyrazol-3-ylmethyl)-carbamic acid 3-cyano-2-((E)-3-pyridin-3-yl-allanoylamino)-4,5,6,7-tetrahydro-benzo[b]thiophen-6-ylmethyl ester], the IC50 in assay [1] is at least 100 µM; in assay [2], at most 0.501 µM.
As for `Cc1cc(CNC(=O)OCC2CCc3c(sc(NC(=O)/C=C/c4cccnc4)c3C#N)C2)no1` (stereo not shown) [Example 47, (5-Methyl-isoxazol-3-ylmethyl)-carbamic acid 3-cyano-2-((E)-3-pyridin-3-yl-allanoylamino)-4,5,6,7-tetrahydro-benzo[b]thiophen-6-ylmethyl ester], the IC50 in assay [1] is at least 100 µM; in assay [2] it was at most 0.501 µM.
Turning to `Cc1cc(CNC(=O)OC[C@H]2CCc3c(sc(NC(=O)/C=C/c4cccnc4)c3C#N)C2)no1` [Example 47a, (S)-(5-Methyl-isoxazol-3-ylmethyl)-carbamic acid 3-cyano-2-((E)-3-pyridin-3-yl-allanoylamino)-4,5,6,7-tetrahydro-benzo[b]thiophen-6-ylmethyl ester], the IC50 in assay [1] is at least 100 µM; in assay [2] it was at most 0.501 µM.
In the case of `Cc1cc(CNC(=O)OC[C@@H]2CCc3c(sc(NC(=O)/C=C/c4cccnc4)c3C#N)C2)no1` [Example 47b, (5-Methyl-isoxazol-3-ylmethyl)-carbamic acid (R)-3-cyano-2-((E)-3-pyridin-3-yl-allanoylamino)-4,5,6,7-tetrahydro-benzo[b]thiophen-6-ylmethyl ester], the IC50 in assay [1] is at least 100 µM; in assay [2] it was at most 0.501 µM.
With `COC(=O)OCC1CCc2c(sc(NC(=O)/C=C/c3cccnc3)c2C#N)C1` (stereo not shown) [Example 49, Carbonic acid 3-cyano-2-((E)-3-pyridin-3-yl-allanoylamino)-4,5,6,7-tetrahydro-benzo[b]thiophen-6-ylmethyl ester methyl ester], the IC50 is at least 100 µM in assay [1] and 0.501 to 2 µM in assay [2].
On the same counts, the results for `Cn1cc(CNC(=O)OCC2CCc3c(sc(NC(=O)/C=C/c4cccnc4)c3C#N)C2)cn1` (stereo not shown) [Example 50, (1-Methyl-1H-pyrazol-4-ylmethyl)-carbamic acid 3-cyano-2-((E)-3-pyridin-3-yl-allanoylamino)-4,5,6,7-tetrahydro-benzo[b]thiophen-6-ylmethyl ester] are at least 100 µM and at most 0.501 µM.
Consider `Cn1cccc1CNC(=O)OCC1CCc2c(sc(NC(=O)/C=C/c3cccnc3)c2C#N)C1` (stereo not shown) [Example 51, (1-Methyl-1H-pyrrol-2-ylmethyl)-carbamic acid 3-cyano-2-((E)-3-pyridin-3-yl-allanoylamino)-4,5,6,7-tetrahydro-benzo[b]thiophen-6-ylmethyl ester], for which the results for the IC50 in assay [1] and in assay [2] were at least 100 µM and 0.501 to 2 µM, respectively.
Take `CCn1nccc1CNC(=O)OCC1CCc2c(sc(NC(=O)/C=C/c3cccnc3)c2C#N)C1` (stereo not shown) [Example 52, (2-Ethyl-2H-pyrazol-3-ylmethyl)-carbamic acid 3-cyano-2-((E)-3-pyridin-3-yl-allanoylamino)-4,5,6,7-tetrahydro-benzo[b]thiophen-6-ylmethyl ester]: the results for the IC50 in assay [1] and in assay [2] were at least 100 µM and 0.501 to 2 µM, respectively.
On the same counts, the results for `Cn1cnc(CNC(=O)OC2CCc3c(sc(NC(=O)/C=C/c4cccnc4)c3C#N)C2)c1` (stereo not shown) [Example 53, (1-Methyl-1H-imidazol-4-ylmethyl)-carbamic acid 3-cyano-2-((E)-3-pyridin-3-yl-allanoylamino)-4,5,6,7-tetrahydro-benzo[b]thiophen-6-yl ester] are at least 100 µM and 0.501 to 2 µM.
On the same counts, the results for `Cc1nn(C)cc1CNC(=O)OCC1CCc2c(sc(NC(=O)/C=C/c3cccnc3)c2C#N)C1` (stereo not shown) [Example 54, (1,3-Dimethyl-1H-pyrazol-4-ylmethyl)-carbamic acid 3-cyano-2-((E)-3-pyridin-3-yl-allanoylamino)-4,5,6,7-tetrahydro-benzo[b]thiophen-6-ylmethyl ester] are at least 100 µM and at most 0.501 µM.
As to `COC(=O)OC1CCc2c(sc(NC(=O)/C=C/c3cccnc3)c2C#N)C1` (stereo not shown) [Example 55, Carbonic acid 3-cyano-2-((E)-3-pyridin-3-yl-allanoylamino)-4,5,6,7-tetrahydro-benzo[b]thiophen-6-yl ester methyl ester], the IC50 was at least 100 µM in assay [1] and at most 0.501 µM in assay [2].
Take `Cn1cccc1CNC(=O)OC1CCc2c(sc(NC(=O)/C=C/c3cccnc3)c2C#N)C1` (stereo not shown) [Example 56, (1-Methyl-1H-pyrrol-2-ylmethyl)-carbamic acid 3-cyano-2-((E)-3-pyridin-3-yl-allanoylamino)-4,5,6,7-tetrahydro-benzo[b]thiophen-6-yl ester]: the IC50 in assay [1] is at least 100 µM; in assay [2], at most 0.501 µM.
On the same counts, the results for `Cc1nn(C)cc1CNC(=O)OC1CCc2c(sc(NC(=O)/C=C/c3cccnc3)c2C#N)C1` (stereo not shown) [Example 57, (1,3-Dimethyl-1H-pyrazol-4-ylmethyl)-carbamic acid 3-cyano-2-((E)-3-pyridin-3-yl-allanoylamino)-4,5,6,7-tetrahydro-benzo[b]thiophen-6-yl ester] are at least 100 µM and at most 0.501 µM.
On to `Cc1oncc1CNC(=O)OC1CCc2c(sc(NC(=O)/C=C/c3cccnc3)c2C#N)C1` (stereo not shown) [Example 58, (5-Methyl-isoxazol-4-ylmethyl)-carbamic acid 3-cyano-2-((E)-3-pyridin-3-yl-allanoylamino)-4,5,6,7-tetrahydro-benzo[b]thiophen-6-yl ester], for which the IC50 in assay [1] is at least 100 µM; in assay [2] it was 0.501 to 2 µM.
With `Cc1nocc1CNC(=O)OC1CCc2c(sc(NC(=O)/C=C/c3cccnc3)c2C#N)C1` (stereo not shown) [Example 59, (3-Methyl-isoxazol-4-ylmethyl)-carbamic acid 3-cyano-2-((E)-3-pyridin-3-yl-allanoylamino)-4,5,6,7-tetrahydro-benzo[b]thiophen-6-yl ester], the results for the IC50 in assay [1] and in assay [2] were at least 100 µM and at most 0.501 µM, respectively.
Turning to `N#Cc1c(NC(=O)/C=C/c2cccnc2)sc2c1CCC(OC(=O)NCc1ccno1)C2` (stereo not shown) [Example 60, Isoxazol-5-ylmethyl-carbamic acid 3-cyano-2-((E)-3-pyridin-3-yl-allanoylamino)-4,5,6,7-tetrahydro-benzo[b]thiophen-6-yl ester], the figures for the IC50 in assay [1] and in assay [2] were at least 100 µM and 0.501 to 2 µM, respectively.
On to `N#Cc1c(NC(=O)/C=C/c2cccnc2)sc2c1CCC(OC(=O)N1CCOCC1)C2` (stereo not shown) [Example 61, Morpholine-4-carboxylic acid 3-cyano-2-((E)-3-pyridin-3-yl-allanoylamino)-4,5,6,7-tetrahydro-benzo[b]thiophen-6-yl ester], for which the figures for the IC50 in assay [1] and in assay [2] were at least 100 µM and at most 0.501 µM, respectively.
For `N#Cc1c(NC(=O)/C=C/c2cccnc2)sc2c1CCC(OC(=O)N1CCCC1)C2` (stereo not shown) [Example 62, Pyrrolidine-1-carboxylic acid 3-cyano-2-((E)-3-pyridin-3-yl-allanoylamino)-4,5,6,7-tetrahydro-benzo[b]thiophen-6-yl ester], the IC50 in assay [1] is at least 100 µM; in assay [2] it was at most 0.501 µM.
